The results in this text go back to PubChem BioAssay (NCI).

Where “and” joins values, the source holds several entries; their conditions need not be identical. Identical values can stand only once.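 Results reflect a 48-hour exposure of cells in 96-well plates to compound at five concentrations. GI50: concentration for 50% inhibition of growth. Definition used: TGI = concentration required for complete inhibition of growth.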

Among the test systems are MDA-N; DMS 273 small cell lung; DLD-1 colon; DMS 114 small cell lung; KM20L2 colon; HOP-18 NSCLC; SNB-78 CNS; XF 498 CNS; RXF-631 renal; P388 leukemia; P388/ADR leukemia; SN12K1 renal.
What all share (experiment): NCI tumour cell line growth inhibition, 48 h

The compound `COc1ccc(OC)c(/C=C/c2cnnc3ccccc23)c1` showed a TGI in the assay with MDA-N of 2.5 µM.
Consider `N=C1N=Nc2nc(C3(c4nc5n(c4O)C(=N)N=N5)Cc4ccccc4C3=O)c(O)n21` (stereo not given), for which the TGI in the assay with MDA-N was greater than 100 µM.
As to `NC(CCCNCc1ccccc1O)C(=O)O` (stereo not given), the TGI in the assay on DMS 273 small cell lung, in the assay with DLD-1 colon, in the assay on DMS 114 small cell lung, in the assay on KM20L2 colon, in the assay on HOP-18 NSCLC and in the assay with SNB-78 CNS was greater than 100 µM throughout.
On to `O=c1[nH]c(C2CCCCC2)nc2cc(Cl)ccc12`, for which the TGI with DMS 273 small cell lung, with DMS 114 small cell lung, in the assay on KM20L2 colon and with SNB-78 CNS was greater than 100 µM throughout.
`O=C1[C@H](c2ccccc2)C2c3ccccc3CCN12` (stereo not given in full): in the assay on MDA-N, the GI50 was greater than 100 µM and the TGI is greater than 100 µM.
For `O=C(Nc1ccc(Cl)cc1Cl)/C(Cl)=C1/Sc2ccccc2NC1=O`, the TGI with DLD-1 colon was greater than 100 µM; with DMS 114 small cell lung, 80 µM; with KM20L2 colon it was greater than 100 µM; in the assay on XF 498 CNS it was 40.5 µM; in the assay on SNB-78 CNS it was greater than 100 µM.
With `O=C(CCc1cc(-c2ccco2)n(-c2ccc([N+](=O)[O-])cc2[N+](=O)[O-])n1)Nc1ccccc1`, the TGI in the assay on DMS 273 small cell lung, with DLD-1 colon, with DMS 114 small cell lung, in the assay on KM20L2 colon, in the assay with XF 498 CNS and with SNB-78 CNS was greater than 100 µM throughout. For the same compound, the TGI in the assay on RXF-631 renal is greater than 100 µM.
Take `COC(=O)C12OCC34C(CC5C(C)=CC(=O)C(O)C5(C)C3C(O)C1O)OC(=O)C(OC(=O)CC(C)C)C24` (stereo not given): the GI50 with P388 leukemia was 0.05 µM; in the assay on DLD-1 colon, 0.0633 µM and 0.05 µM; in the assay with DMS 114 small cell lung it was 0.133 µM; in the assay with KM20L2 colon it was 0.0479 µM and 0.05 µM; in the assay with XF 498 CNS, 0.041 µM and 0.05 µM; in the assay on HOP-18 NSCLC, 0.00907 µM and 0.0441 µM and 0.05 µM. Moreover, the GI50 in the assay with P388/ADR leukemia was 0.0657 µM; in the assay on SN12K1 renal it was 0.000382 µM; in the assay with SNB-78 CNS it was 0.0748 µM and 0.05 µM. For the same compound, the TGI with MDA-N was 0.00503 µM; in the assay on HOP-18 NSCLC, 0.0463 µM and 0.274 µM and 0.219 µM; in the assay on SN12K1 renal, 0.00272 µM.
On to `FC(F)(F)c1ccccc1C=NC12CC3CC(CC(C3)C1)C2`, for which the TGI in the assay with DMS 273 small cell lung, in the assay with DMS 114 small cell lung, in the assay with KM20L2 colon, in the assay on XF 498 CNS and with SNB-78 CNS was greater than 100 µM in each case.
For `[O-][N+]1=C(c2ccccc2)COc2ccccc21`, the TGI in the assay with DMS 273 small cell lung, in the assay with DLD-1 colon, with DMS 114 small cell lung, in the assay with KM20L2 colon, in the assay with HOP-18 NSCLC and in the assay with SNB-78 CNS was greater than 100 µM throughout. This compound had a TGI in the assay on RXF-631 renal greater than 100 µM.
Take `CNC(=S)N/N=C(/C)CCC/C(C)=N/NC(=S)NC`: the TGI in the assay on MDA-N was greater than 100 µM.
Take `C=C1CCC2C(C)(CO)C(O)CCC2(C)C1CC(O)C1=CCOC1=O` (stereo not given): the TGI in the assay on DMS 273 small cell lung, in the assay on DLD-1 colon, in the assay with DMS 114 small cell lung, in the assay with KM20L2 colon, in the assay with HOP-18 NSCLC and in the assay with RXF-631 renal was greater than 100 µM in each case.
`O=CN/C=C/c1ccccc1O`: the TGI with DMS 273 small cell lung, with DLD-1 colon, with DMS 114 small cell lung, with KM20L2 colon, in the assay with HOP-18 NSCLC and in the assay with SNB-78 CNS was greater than 100 µM throughout.
On to `O=C(O)C#Cc1ccc([N+](=O)[O-])cc1`, for which, in the assay on MDA-N, the TGI was greater than 100 µM.
`O=C1CC23CC(=O)CC2(C1)c1ccccc1C3=O` (stereo not given): the TGI in the assay on DMS 273 small cell lung, in the assay with DLD-1 colon, in the assay with DMS 114 small cell lung, in the assay on KM20L2 colon, with XF 498 CNS and in the assay with HOP-18 NSCLC was greater than 100 µM throughout. In addition, the TGI in the assay with SNB-78 CNS is greater than 100 µM.
Take `Cc1ccc(S(=O)(=O)NC(=O)Nc2nc(Cl)cc(Cl)n2)cc1`: the TGI in the assay with DLD-1 colon, in the assay with DMS 114 small cell lung, with KM20L2 colon, in the assay on XF 498 CNS, in the assay with HOP-18 NSCLC and with SNB-78 CNS was greater than 100 µM each time. In the assay with RXF-631 renal, the TGI is greater than 100 µM.
Regarding `Cc1cc2c(=O)cc(-c3ccc(C(=O)O)cc3)oc2c(C(=O)O)c1C`, the TGI with DMS 273 small cell lung, with DLD-1 colon, in the assay on DMS 114 small cell lung, with KM20L2 colon, in the assay on HOP-18 NSCLC and in the assay on SNB-78 CNS was greater than 100 µM in each case. The compound also yielded a TGI in the assay with RXF-631 renal greater than 100 µM.
Regarding `COC(=O)CCC(=O)C(C#N)c1ccc(Cl)cc1Cl` (stereo not given), the TGI with DMS 273 small cell lung, in the assay on DLD-1 colon, in the assay with KM20L2 colon, in the assay with XF 498 CNS, in the assay on SNB-78 CNS and with RXF-631 renal was greater than 100 µM in each case.
`Cn1c(-c2ccccc2)c/c(=N\NS(C)(=O)=O)c2cc(S(=O)(=O)O)ccc21`: the TGI in the assay with DMS 273 small cell lung, in the assay on DLD-1 colon, in the assay with DMS 114 small cell lung, in the assay on KM20L2 colon, with XF 498 CNS and in the assay with HOP-18 NSCLC was greater than 100 µM each time. The compound further showed a TGI with SNB-78 CNS greater than 100 µM.
Take `Cc1cc(NC(=O)C(=O)Cc2nc3ccccc3s2)ccc1Cl`: the TGI in the assay on DMS 273 small cell lung, in the assay with DLD-1 colon, in the assay on DMS 114 small cell lung, in the assay on KM20L2 colon, in the assay with MDA-N and in the assay with XF 498 CNS was greater than 100 µM in each case. In addition, the TGI with HOP-18 NSCLC and in the assay with SNB-78 CNS was greater than 100 µM each time.
Turning to `Cn1c2ccccc2c(=S)c2cc(NC(=O)CCCCC(=O)Nc3ccc4c(c3)c(=S)c3ccccc3n4C)ccc21`, the TGI with MDA-N is greater than 100 µM.
Regarding `Cc1ccccc1C(C#N)/C(=N/NC(=O)C(=O)NN)C(=O)Nc1cccc(C(F)(F)F)c1` (stereo not given), the TGI in the assay with DMS 273 small cell lung, with DLD-1 colon, in the assay with DMS 114 small cell lung, with KM20L2 colon, in the assay on HOP-18 NSCLC and with SNB-78 CNS was greater than 100 µM each time. This compound also had a TGI in the assay with RXF-631 renal greater than 100 µM.
Regarding `O=S(=O)(c1ccccc1)C1CN(Cc2ccccc2)CCN(Cc2ccccc2)C1`, the TGI was greater than 100 µM in the assay with DMS 273 small cell lung; 84.7 µM in the assay with DLD-1 colon; greater than 100 µM in the assay on DMS 114 small cell lung; greater than 100 µM with KM20L2 colon; 59.5 µM with MDA-N; 63 µM in the assay with XF 498 CNS.
As to `COC1(C)Cc2c(c(C)c(O)c3c2C(=O)C=C(Cl)C3=O)O1` (stereo not given), the TGI is greater than 100 µM with DMS 273 small cell lung; 37.1 µM in the assay on DLD-1 colon; 76.6 µM in the assay on DMS 114 small cell lung; greater than 100 µM in the assay with KM20L2 colon; greater than 100 µM in the assay with MDA-N; greater than 56.4 µM in the assay with XF 498 CNS.
As for `O=C(Cc1nc2ccccc2s1)NC12CC3CC(CC(C3)C1)C2`, the TGI in the assay on DMS 273 small cell lung, in the assay with DLD-1 colon, in the assay with KM20L2 colon, in the assay with SNB-78 CNS and in the assay with RXF-631 renal was greater than 100 µM in each case.
Regarding `N#Cc1ccccc1/C=N/O`, the TGI in the assay with DMS 273 small cell lung is greater than 55.6 µM; in the assay with DLD-1 colon, greater than 100 µM; in the assay with DMS 114 small cell lung, greater than 100 µM; with KM20L2 colon, greater than 100 µM; in the assay on XF 498 CNS, greater than 100 µM; with HOP-18 NSCLC, greater than 100 µM. The TGI with SNB-78 CNS was greater than 100 µM.
For the compound `O=[N+]([O-])c1ccc(C2N3CCCCC3[C@@H]3c4[nH]c5ccccc5c4CCN23)cc1` (stereo not given in full), the TGI with DMS 273 small cell lung was greater than 100 µM; with DLD-1 colon it was 57.7 µM; in the assay on DMS 114 small cell lung, 22 µM; in the assay with KM20L2 colon it was 24.5 µM; in the assay with XF 498 CNS it was 33.9 µM; with HOP-18 NSCLC, greater than 100 µM. For the same compound, the TGI with SNB-78 CNS was 21.6 µM; with RXF-631 renal, greater than 100 µM.
As for `COC(=O)C1CCc2nnc(-c3cccnc3)n21` (stereo not given), the TGI in the assay on DMS 273 small cell lung, in the assay with DLD-1 colon, in the assay with DMS 114 small cell lung, in the assay on KM20L2 colon, with HOP-18 NSCLC and with SNB-78 CNS was greater than 100 µM each time. The TGI with RXF-631 renal was greater than 100 µM.
Regarding `O=C(/C=C/c1ccc2c(c1)OCO2)c1ccccc(=O)c1O`, the TGI in the assay with MDA-N is greater than 100 µM.
In the case of `O=c1nc2[nH]nc(-c3ccccc3)c2n[nH]1`, the TGI in the assay with DMS 273 small cell lung, in the assay on DLD-1 colon, in the assay on DMS 114 small cell lung, with KM20L2 colon and with SNB-78 CNS was greater than 100 µM throughout.
Consider `CC(C)(C)C1CCN(C(=O)c2ccccc2)CC1`, for which the TGI in the assay with DMS 273 small cell lung was greater than 100 µM; in the assay on DLD-1 colon it was greater than 100 µM; in the assay on DMS 114 small cell lung, 98.8 µM; in the assay on KM20L2 colon, greater than 100 µM; with HOP-18 NSCLC, greater than 100 µM; with SNB-78 CNS, greater than 100 µM.
